Data: US8754066B2, “Phenoxy derivatives as sphingosine 1-phosphate (S1P) receptor modulators” (Allergan, Inc., priority 2012, dated 2014)

Target: T1, human S1P1 receptor (Homo sapiens, UniProt P21453)
T1 construct: expressed in transfected cells; host or cells: unnamed cells stably expressing the receptor; membranes used
Assay: GTP γ35S binding assay for S1P1 activity
Assay type: biochemical
Settings: activity potency from GTP γ35S binding; 5 μg membrane protein; test compounds 0.08 to 5,000 nM; 30 min at 25° C.
Protocol: Compounds were synthesized and tested for S1P1 activity using the GTP γ^35S binding assay. These compounds may be assessed for their ability to activate or block activation of the human S1P1 receptor in cells stably expressing the […] receptor.
GTP γ^35S binding was measured in the medium containing (mM) HEPES 25, pH 7.4, MgCl2 10, NaCl 100, dithitothreitol 0.5, digitonin 0.003%, 0.2 nM GTP γ^35S, and 5 μg membrane protein in a volume of 150 μl. Test compounds were included in the concentration range from 0.08 to 5,000 nM unless indicated otherwise. Membranes were incubated with 100 μM 5′-adenylylimmidodiphosphate for 30 min, and subsequently with 10 μM GDP for 10 min on ice. Drug solutions and membrane were mixed, and then reactions were initiated by adding GTP γ^35S and continued for 30 min at 25° C. Reaction mixtures were filtered over Whatman GF/B filters under vacuum, and washed three times with 3 mL of ice-cold buffer (HEPES 25, pH7.4, MgCl2 10 and NaCl 100). Filters were dried and mixed with scintillant, and counted for ^35S activity using a β-counter. Agonist-induced GTP γ^35S binding was obtained by subtracting that in the absence of agonist. Binding data were analyzed using a non-linear regression method. In case of antagonist assay, the reaction mixture contained 10 nM S1P in the presence of test antagonist at concentrations ranging from 0.08 to 5000 nM.
Activity potency: S1P1 receptor from GTP γ^35S: nM, (EC50),

T1 sequence (P21453 whole entry): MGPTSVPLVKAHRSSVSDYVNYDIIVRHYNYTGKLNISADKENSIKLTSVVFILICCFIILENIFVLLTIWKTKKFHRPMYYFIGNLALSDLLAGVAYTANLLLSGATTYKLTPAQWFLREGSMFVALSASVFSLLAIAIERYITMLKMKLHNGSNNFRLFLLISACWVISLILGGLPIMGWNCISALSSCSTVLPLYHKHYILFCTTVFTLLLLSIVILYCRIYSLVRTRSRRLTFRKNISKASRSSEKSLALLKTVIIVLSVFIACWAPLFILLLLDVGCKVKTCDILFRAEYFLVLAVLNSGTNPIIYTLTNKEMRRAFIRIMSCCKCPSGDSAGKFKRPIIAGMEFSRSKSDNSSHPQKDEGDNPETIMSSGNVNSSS

SMILES	EC50
Cc1ccc(CC(CCCOc2ccc(CNCCC(=O)O)cc2)c2ccsc2)cc1C (centres unmarked) [Compound 1, 3-[(4-{[5-(3,4-dimethylphenyl)-4-(3-thienyl)pentyl]oxy}benzyl)amino]propanoic acid]	14 nM
Cc1ccc(CC(CCCOc2ccc(CNCCC(=O)O)cc2)c2cccc(F)c2F)cc1C (centres unmarked) [Compound 2, 3-[(4-{[4-(2,3-difluorophenyl)-5-(3,4-dimethylphenyl)pentyl]oxy}benzyl)amino]propanoic acid]	0.85 nM
Cc1ccc(CC(CCCCOc2ccc(CNCCC(=O)O)cc2)c2cccc(Cl)c2)cc1C (centres unmarked) [Compound 3, 3-[(4-{[5-(3-chlorophenyl)-6-(3,4-dimethylphenyl)hexyl]oxy}benzyl)amino]propanoic acid]	134 nM
Cc1ccc(CC(CCCOc2ccc(CNCCC(=O)O)cc2)c2cc(F)cc(F)c2)cc1C (centres unmarked) [Compound 4, 3-[(4-{[4-(3,5-difluorophenyl)-5-(3,4-dimethylphenyl)pentyl]oxy}benzyl)amino]propanoic acid]	17.8 nM
Cc1ccc(CC(CCCOc2ccc(CNCCC(=O)O)cc2)c2cccc(Cl)c2)cc1C (centres unmarked) [Compound 5, 3-[(4-{[4-(3-chlorophenyl)-5-(3,4-dimethylphenyl)pentyl]oxy}benzyl)amino]propanoic acid]	59.5 nM
Cc1ccc(CC(CCOc2ccc(CNCCC(=O)O)cc2)c2cccc(Cl)c2)cc1C (centres unmarked) [Compound 6, 3-({4-[3-(3-chlorophenyl)-4-(3,4-dimethylphenyl)butoxy]benzyl}amino)propanoic acid]	96.9 nM
Cc1ccc(CC(CCCOc2ccc(CNCCCP(=O)(O)O)cc2)c2ccsc2)cc1C (centres unmarked) [Compound 7]	2.08 nM
Cc1ccc(CC(CCCCOc2ccc(CNCCCP(=O)(O)O)cc2)c2cccc(Cl)c2)cc1C (centres unmarked) [Compound 8, {3-[(4-{[5-(3-chlorophenyl)-6-(3,4-dimethylphenyl)hexyl]oxy}benzyl)amino]propyl}phosphonic acid]	17.1 nM
Cc1ccc(CC(CCCOc2ccc(CNCCCP(=O)(O)O)cc2)c2cc(F)cc(F)c2)cc1C (centres unmarked) [Compound 9, {3-[(4-{[4-(3,5-difluorophenyl)-5-(3,4-dimethylphenyl)pentyl]oxy}benzyl)amino]propyl}phosphonic acid]	0.01 nM
Cc1ccc(CC(CCCOc2ccc(CNCCCP(=O)(O)O)cc2)c2cccc(Cl)c2)cc1C (centres unmarked) [Compound 10, {3-[(4-{[4-(3-chlorophenyl)-5-(3,4-dimethylphenyl)pentyl]oxy}benzyl)amino]propyl}phosphonic acid]	0.23 nM
Cc1ccc(CC(CCOc2ccc(CNCCCP(=O)(O)O)cc2)c2cccc(Cl)c2)cc1C (centres unmarked) [Compound 11, [3-({4-[3-(3-chlorophenyl)-4-(3,4-dimethylphenyl)butoxy]benzyl}amino)propyl]phosphonic acid]	7.44 nM
